Laboratory results as given in ChEMBL document CHEMBL3826929, “Discovery and Preclinical Evaluation of BMS-711939, an Oxybenzylglycine Based PPARα Selective Agonist” (ACS Med Chem Lett, 2016).

Tests used:
[1] = target: T1, Peroxisome proliferator-activated receptor alpha (Homo sapiens, UniProt Q07869); test: Agonist activity at full length human PPAR-alpha transfected in human HepG2 cells by luciferase reporter gene assay; format: cell-based
T1 sequence (Q07869 whole entry): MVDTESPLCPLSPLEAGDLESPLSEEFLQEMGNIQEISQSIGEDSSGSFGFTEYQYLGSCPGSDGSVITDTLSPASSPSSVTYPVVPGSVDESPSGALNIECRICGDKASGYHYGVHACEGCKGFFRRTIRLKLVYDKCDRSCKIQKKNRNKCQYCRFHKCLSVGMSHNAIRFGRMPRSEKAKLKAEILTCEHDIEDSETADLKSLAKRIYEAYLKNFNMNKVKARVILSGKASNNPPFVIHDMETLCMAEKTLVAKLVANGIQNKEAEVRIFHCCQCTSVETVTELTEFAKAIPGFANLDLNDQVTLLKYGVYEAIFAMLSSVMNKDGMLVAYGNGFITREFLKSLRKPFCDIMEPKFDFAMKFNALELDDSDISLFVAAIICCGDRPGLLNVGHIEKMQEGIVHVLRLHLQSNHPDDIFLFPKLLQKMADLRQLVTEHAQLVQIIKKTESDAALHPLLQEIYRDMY

Syrian golden hamster [2] = test: Decrease in plasma LDL cholesterol level in high fat-diet fed syrian golden hamster model of dyslipidemia administered qd through oral gavage measured after 21 days by FPLC analysis relative to control; format: functional, organism-based; conditions: Mesocricetus auratus
Syrian golden hamster [3] = test: Decrease in plasma LDL cholesterol level in high fat-diet fed syrian golden hamster model of dyslipidemia at 10 mg/kg administered qd through oral gavage measured after 21 days by FPLC analysis relative to control; format: functional, Mesocricetus auratus; parameters: scale not given: the % may be the effect or the level left
Syrian golden hamster [4] = test: Decrease in plasma LDL cholesterol level in high fat-diet fed syrian golden hamster model of dyslipidemia at 3 mg/kg administered qd through oral gavage measured after 21 days by FPLC analysis relative to control; format: functional, Mesocricetus auratus; parameters: scale not given: the % may be the effect or the level left
[5] = target: T2, Peroxisome proliferator-activated receptor alpha (Homo sapiens) (UniProt Q07869); test: Intrinsic activity at PPAR-alpha (unknown origin) relative to fenofibric acid
T2 sequence (whole entry): T1 sequence (Q07869 whole entry)

[6] = target: T3, Peroxisome proliferator-activated receptor gamma (Homo sapiens, UniProt P37231); test: Binding affinity to human GST-tagged PPAR-gamma LBD expressed in Escherichia coli BL21 after 30 mins in presence of fluorescein ligand FLA-A by fluorescence polarization assay
T3 sequence (P37231 whole entry): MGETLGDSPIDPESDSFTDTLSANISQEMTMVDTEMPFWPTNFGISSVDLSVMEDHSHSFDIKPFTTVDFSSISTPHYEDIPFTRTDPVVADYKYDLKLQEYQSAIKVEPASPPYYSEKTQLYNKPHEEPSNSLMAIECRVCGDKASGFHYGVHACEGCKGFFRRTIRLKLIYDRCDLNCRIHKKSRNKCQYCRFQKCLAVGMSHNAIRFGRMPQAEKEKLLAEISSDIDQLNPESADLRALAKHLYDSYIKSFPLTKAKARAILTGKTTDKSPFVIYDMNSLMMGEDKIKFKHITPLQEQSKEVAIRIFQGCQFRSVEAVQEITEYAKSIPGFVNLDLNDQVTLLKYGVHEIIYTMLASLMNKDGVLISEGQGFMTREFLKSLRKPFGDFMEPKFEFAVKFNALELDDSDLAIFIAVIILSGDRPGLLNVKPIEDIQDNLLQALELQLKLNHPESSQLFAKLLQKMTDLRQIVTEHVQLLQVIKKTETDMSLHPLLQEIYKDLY

[7] = Tmax in Sprague-Dawley rat at 8 mg/kg, po; format: ADME, organism-based; conditions: in vivo
[8] = Tmax in dog at 2 mg/kg, po; format: ADME, organism-based, Canis lupus familiaris; conditions: in vivo
[9] = Tmax in cynomolgus monkey at 2 mg/kg, po; format: ADME, organism-based, Macaca fascicularis; conditions: in vivo
[10] = Cmax in Balb/c mouse at 10 mg/kg, po; format: ADME, organism-based; parameters: dose 10 mg/kg, route oral; conditions: in vivo
[11] = Cmax in Sprague-Dawley rat at 8 mg/kg, po; format: ADME, organism-based; parameters: dose 8 mg/kg, route oral; conditions: in vivo
[12] = AUC (0 to 8 hrs) in Sprague-Dawley rat at 8 mg/kg, po; format: ADME, organism-based; parameters: time < 8 hr, dose 8 mg/kg, route oral; conditions: in vivo
[13] = AUC (0 to 8 hrs) in dog at 1 mg/kg, iv; format: ADME, organism-based, Canis lupus familiaris; parameters: dose 1 mg/kg, time < 8 hr, route intravenous; conditions: in vivo
[14] = AUC (0 to 8 hrs) in dog at 2 mg/kg, po; format: ADME, organism-based, Canis lupus familiaris; parameters: dose 2 mg/kg, time < 8 hr, route oral; conditions: in vivo
[15] = Plasma clearance in Sprague-Dawley rat at 4 mg/kg, iv; format: ADME, organism-based
[16] = Plasma clearance in cynomolgus monkey at 1 mg/kg, iv; format: ADME, organism-based, Macaca fascicularis
[17] = Half life in cynomolgus monkey at 1 mg/kg, iv; format: ADME, organism-based, Macaca fascicularis; conditions: in vivo
[18] = Agonist activity at hamster PPAR-alpha; parameters: species or system Cricetinae
Glucocorticoid receptor = Glucocorticoid receptor (Homo sapiens, UniProt P04150); test: Agonist activity at human GR by transactivation assay
Retinoid X receptor = Retinoid X receptor (Homo sapiens, UniProt P28702+P48443+P19793); test: Agonist activity at human RXR by transactivation assay; format: protein assay
[19] = target: Peroxisome proliferator-activated receptor delta (Homo sapiens) (UniProt Q03181); test: Agonist activity against human PPAR-delta by transactivation assay relative to standard compound
[20] = Protein binding in human plasma; format: ADME, cell-free; conditions: read-out: PPB (converted)
[21] = Protein binding in mouse plasma; format: ADME, cell-free; conditions: read-out: PPB (converted)
Cytochrome P450 1A2 = Cytochrome P450 1A2 (Homo sapiens, UniProt P05177); test: Inhibition of CYP1A2 (unknown origin); format: ADME
Cytochrome P450 2C8 = Cytochrome P450 2C8 (Homo sapiens, UniProt P10632); test: Inhibition of CYP2C8 (unknown origin); format: ADME
Cytochrome P450 2C19 = Cytochrome P450 2C19 (Homo sapiens, UniProt P33261); test: Inhibition of CYP2C19 (unknown origin); format: ADME
Mus musculus [22] = test: Increase in ApoA1 level in transgenic mouse expressing human ApoA1 at 10 mg/kg administered qd through oral gavage measured after 10 days relative to vehicle-treated control; format: functional
Cytochrome P450 3A4 = Cytochrome P450 3A4 (Homo sapiens, UniProt P08684); test: Inhibition of CYP3A4 in human TC5 cells; format: ADME, cell-based
[23] = target: Voltage-gated inwardly rectifying potassium channel KCNH2 (Homo sapiens, UniProt Q12809); test: Inhibition of human ERG by flux-based assay
hERG (KCNH2) = hERG (KCNH2) (Homo sapiens, UniProt Q12809); test: Inhibition of human ERG at 30 uM by patch-clamp method
[24] = Cardiovascular toxicity in purkinje fiber (unknown origin) assessed as change in action potential duration at 90% repolarization at 30 uM
CHO = test: Clastogenecity in CHO cells; format: ADME, cell-based, Cricetulus griseus; conditions: chinese hamster
Salmonella typhimurium = test: Genotoxicity in Salmonella typhimurium TA100 up to 5000 ug by Ames test; format: toxicity, organism-based; conditions: salmonella enterica subsp. enterica serovar typhimurium
Rhesus monkey = test: Cardiovascular toxicity in monkey assessed as change in hemodynamic effect up to 20 mg/kg administered as single dose by telemetry test; format: organism-based, Macaca mulatta; conditions: in vivo
Mus musculus [25] = test: Increase in serum ApoA1 level in transgenic mouse expressing human ApoA1 compound administered qd through oral gavage measured after 10 days; format: functional, organism-based
Mus musculus [26] = test: Increase in HDL cholesterol level in transgenic mouse expressing human ApoA1 compound administered qd through oral gavage measured after 10 days; format: functional, organism-based

Chain of Cytochrome P450 1A2 (P05177 whole entry): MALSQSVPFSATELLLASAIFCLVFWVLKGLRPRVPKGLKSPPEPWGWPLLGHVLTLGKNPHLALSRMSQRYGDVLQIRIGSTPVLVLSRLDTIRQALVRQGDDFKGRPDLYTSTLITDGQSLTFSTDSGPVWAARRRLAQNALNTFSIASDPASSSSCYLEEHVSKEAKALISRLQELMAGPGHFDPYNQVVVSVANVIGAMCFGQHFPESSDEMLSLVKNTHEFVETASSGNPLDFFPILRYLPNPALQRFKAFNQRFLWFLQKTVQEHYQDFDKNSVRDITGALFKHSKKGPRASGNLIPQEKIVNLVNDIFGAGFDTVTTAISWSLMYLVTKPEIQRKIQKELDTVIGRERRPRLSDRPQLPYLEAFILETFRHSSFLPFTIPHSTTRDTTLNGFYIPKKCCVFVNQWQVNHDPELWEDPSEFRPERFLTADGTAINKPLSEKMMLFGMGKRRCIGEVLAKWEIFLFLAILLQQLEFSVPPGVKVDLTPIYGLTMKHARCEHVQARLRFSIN
Chain of Peroxisome proliferator-activated receptor delta (Homo sapiens) (Q03181 whole entry): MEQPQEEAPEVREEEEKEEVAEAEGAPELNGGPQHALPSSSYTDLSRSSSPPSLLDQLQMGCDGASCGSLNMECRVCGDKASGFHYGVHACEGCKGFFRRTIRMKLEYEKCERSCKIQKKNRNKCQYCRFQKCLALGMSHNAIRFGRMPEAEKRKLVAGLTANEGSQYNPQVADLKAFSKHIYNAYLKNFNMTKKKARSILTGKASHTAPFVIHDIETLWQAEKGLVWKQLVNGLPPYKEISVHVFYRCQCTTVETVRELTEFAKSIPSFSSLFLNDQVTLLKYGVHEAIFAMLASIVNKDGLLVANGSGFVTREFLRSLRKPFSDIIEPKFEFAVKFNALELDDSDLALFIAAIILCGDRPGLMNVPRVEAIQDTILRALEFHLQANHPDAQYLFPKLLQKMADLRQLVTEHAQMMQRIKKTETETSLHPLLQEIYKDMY
Chain of Cytochrome P450 2C19 (P33261 whole entry): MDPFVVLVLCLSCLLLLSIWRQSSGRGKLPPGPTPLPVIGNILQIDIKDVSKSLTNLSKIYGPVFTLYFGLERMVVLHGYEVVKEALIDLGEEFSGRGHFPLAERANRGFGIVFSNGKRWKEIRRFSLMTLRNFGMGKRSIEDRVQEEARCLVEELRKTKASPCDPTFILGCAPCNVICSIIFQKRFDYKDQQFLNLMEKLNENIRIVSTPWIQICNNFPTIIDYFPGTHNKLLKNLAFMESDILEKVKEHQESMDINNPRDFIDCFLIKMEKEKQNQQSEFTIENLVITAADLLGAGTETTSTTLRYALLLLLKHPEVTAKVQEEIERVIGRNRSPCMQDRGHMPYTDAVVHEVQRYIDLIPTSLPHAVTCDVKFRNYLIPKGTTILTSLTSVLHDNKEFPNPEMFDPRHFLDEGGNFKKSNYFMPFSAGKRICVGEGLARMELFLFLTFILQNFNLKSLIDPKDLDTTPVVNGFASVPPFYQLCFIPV
Chain of Glucocorticoid receptor (P04150 whole entry): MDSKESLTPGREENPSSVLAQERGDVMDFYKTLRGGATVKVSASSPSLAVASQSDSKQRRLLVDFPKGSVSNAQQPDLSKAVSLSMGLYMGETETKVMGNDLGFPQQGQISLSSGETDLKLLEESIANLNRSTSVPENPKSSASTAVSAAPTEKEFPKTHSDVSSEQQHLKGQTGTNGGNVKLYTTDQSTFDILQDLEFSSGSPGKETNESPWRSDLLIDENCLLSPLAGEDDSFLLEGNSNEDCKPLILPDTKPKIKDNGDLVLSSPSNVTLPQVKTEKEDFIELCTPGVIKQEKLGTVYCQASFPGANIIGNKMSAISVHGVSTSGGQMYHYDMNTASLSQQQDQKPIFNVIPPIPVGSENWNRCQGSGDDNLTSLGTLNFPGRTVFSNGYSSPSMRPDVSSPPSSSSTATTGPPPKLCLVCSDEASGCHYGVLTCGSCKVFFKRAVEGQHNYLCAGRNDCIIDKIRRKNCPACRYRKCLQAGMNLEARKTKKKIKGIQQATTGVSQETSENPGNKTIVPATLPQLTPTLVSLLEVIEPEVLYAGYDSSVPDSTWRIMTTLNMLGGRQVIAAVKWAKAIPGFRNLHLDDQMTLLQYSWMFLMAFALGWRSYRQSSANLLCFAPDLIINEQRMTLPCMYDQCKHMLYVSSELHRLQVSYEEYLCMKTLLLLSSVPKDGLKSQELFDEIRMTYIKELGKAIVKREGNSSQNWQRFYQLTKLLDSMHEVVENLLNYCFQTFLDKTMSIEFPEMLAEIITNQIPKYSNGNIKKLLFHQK
Chain of Cytochrome P450 2C8 (P10632 whole entry): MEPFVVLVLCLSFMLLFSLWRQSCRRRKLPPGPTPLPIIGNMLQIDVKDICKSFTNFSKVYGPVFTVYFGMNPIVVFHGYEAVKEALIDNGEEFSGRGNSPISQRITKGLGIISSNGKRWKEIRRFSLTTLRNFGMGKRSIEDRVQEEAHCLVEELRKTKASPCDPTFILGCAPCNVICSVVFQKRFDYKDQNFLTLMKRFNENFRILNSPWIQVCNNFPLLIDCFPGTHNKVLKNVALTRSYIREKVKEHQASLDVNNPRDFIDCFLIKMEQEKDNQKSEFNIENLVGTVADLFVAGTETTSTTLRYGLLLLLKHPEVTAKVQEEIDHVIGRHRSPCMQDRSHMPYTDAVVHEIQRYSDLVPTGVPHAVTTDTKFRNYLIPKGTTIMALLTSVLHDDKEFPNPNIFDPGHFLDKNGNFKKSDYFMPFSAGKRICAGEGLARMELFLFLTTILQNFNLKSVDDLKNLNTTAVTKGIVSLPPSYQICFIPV
Chain of Cytochrome P450 3A4 (P08684 whole entry): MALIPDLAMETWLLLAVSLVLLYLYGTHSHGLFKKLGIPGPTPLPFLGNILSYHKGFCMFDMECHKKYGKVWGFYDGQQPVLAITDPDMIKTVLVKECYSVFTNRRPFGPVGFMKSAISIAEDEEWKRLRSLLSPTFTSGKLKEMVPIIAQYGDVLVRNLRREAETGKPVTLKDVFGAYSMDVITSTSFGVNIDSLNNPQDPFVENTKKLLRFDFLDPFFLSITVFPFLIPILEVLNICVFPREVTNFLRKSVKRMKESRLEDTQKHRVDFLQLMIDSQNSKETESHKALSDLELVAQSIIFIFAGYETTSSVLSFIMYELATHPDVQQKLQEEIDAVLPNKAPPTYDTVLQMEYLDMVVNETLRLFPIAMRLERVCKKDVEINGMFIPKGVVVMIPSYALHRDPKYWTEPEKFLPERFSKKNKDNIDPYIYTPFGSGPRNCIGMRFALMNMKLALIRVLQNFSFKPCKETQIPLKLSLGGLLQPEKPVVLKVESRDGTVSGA
Chain of Voltage-gated inwardly rectifying potassium channel KCNH2 (Q12809 whole entry): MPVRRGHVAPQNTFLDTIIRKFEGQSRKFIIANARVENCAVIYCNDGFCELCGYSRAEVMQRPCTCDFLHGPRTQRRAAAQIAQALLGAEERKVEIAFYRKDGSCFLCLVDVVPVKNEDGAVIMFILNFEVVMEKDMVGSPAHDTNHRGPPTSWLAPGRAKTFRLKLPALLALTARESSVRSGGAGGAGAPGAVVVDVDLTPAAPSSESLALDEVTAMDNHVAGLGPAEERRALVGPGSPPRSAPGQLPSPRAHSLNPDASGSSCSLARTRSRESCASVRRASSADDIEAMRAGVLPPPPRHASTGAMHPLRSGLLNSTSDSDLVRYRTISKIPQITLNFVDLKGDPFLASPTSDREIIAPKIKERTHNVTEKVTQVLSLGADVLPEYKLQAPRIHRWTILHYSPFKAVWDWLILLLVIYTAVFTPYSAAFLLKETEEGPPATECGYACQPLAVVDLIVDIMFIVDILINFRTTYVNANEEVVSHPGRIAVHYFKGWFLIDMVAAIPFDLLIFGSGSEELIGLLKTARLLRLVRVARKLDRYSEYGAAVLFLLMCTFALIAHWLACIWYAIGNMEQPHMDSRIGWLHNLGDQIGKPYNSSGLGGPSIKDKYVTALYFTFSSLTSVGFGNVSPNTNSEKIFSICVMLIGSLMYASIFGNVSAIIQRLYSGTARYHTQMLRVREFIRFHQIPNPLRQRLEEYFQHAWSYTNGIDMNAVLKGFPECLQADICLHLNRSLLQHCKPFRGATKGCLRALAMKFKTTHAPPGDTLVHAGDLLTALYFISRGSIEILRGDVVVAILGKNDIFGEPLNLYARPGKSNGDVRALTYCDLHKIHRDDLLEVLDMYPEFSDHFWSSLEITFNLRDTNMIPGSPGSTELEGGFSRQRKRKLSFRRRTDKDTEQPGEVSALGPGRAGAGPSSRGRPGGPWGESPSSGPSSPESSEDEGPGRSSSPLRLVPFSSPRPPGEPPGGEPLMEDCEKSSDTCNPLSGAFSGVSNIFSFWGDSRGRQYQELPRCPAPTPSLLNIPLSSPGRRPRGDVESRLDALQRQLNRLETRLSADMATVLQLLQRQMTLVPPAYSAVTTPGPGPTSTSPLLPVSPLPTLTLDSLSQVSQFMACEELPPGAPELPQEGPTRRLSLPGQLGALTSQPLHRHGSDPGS

Q: With `COC(=O)N(CC(=O)O)Cc1cc(OCc2nc(-c3ccc(Cl)cc3)oc2C)ccc1F` as the molecule, how does the EC50 [1] read?
A: Its EC50 is 0.005 µM.

Q: And the Activity (Syrian golden hamster [2])?
A: Its Activity is “Dose-dependent effect”.

Q: What about the Activity (Syrian golden hamster [3]) of the same molecule?
A: Its Activity is 87%.

Q: What about the Activity (Syrian golden hamster [4]) of the same molecule?
A: Its Activity is 61%.

Q: What about the Intrinsic activity [5] of the same molecule?
A: The Intrinsic activity was > 50%.

Q: And the IC50 [6]?
A: The IC50 was > 98.4 µM.

Q: And the Tmax [7]?
A: Its Tmax is 18 min.

Q: And the Tmax [8]?
A: The Tmax was 48 min.

Q: What about the Tmax [9] of the same molecule?
A: Its Tmax is 54 min.

Q: What about the Cmax [10] of the same molecule?
A: Its Cmax is 22.7 µM.

Q: What about the Cmax [11] of the same molecule?
A: The Cmax was 14.9 µM.

Q: What about the AUC(0-t) at 8 h [12] of the same molecule?
A: Its AUC(0-t) at 8 h is 32 µM·h.

Q: What about the AUC(0-t) at 8 h [13] of the same molecule?
A: The AUC(0-t) at 8 h was 3.5 µM·h.

Q: And the AUC(0-t) at 8 h [14]?
A: The AUC(0-t) at 8 h was 4 µM·h.

Q: What about the clearance [15] of the same molecule?
A: Its clearance is 15.3 mL/min/kg.

Q: What about the clearance [16] of the same molecule?
A: The clearance was 5.9 mL/min/kg.

Q: And the half-life [17]?
A: Its half-life is 1580 min.

Q: What about the EC50 [18] of the same molecule?
A: Its EC50 is 0.178 µM.

Q: And the EC50 (Glucocorticoid receptor)?
A: The EC50 was > 25 µM.

Q: What about the EC50 (Retinoid X receptor) of the same molecule?
A: Its EC50 is > 25 µM.

Q: And the Efficacy [19]?
A: The Efficacy was < 15%.

Q: What about the fraction unbound [20] of the same molecule?
A: The fraction unbound was 0.003.

Q: What about the fraction unbound [21] of the same molecule?
A: Its fraction unbound is 0.002.

Q: What about the IC50 (Cytochrome P450 1A2) of the same molecule?
A: The IC50 was > 40 µM.

Q: And the IC50 (Cytochrome P450 2C8)?
A: The IC50 was > 40 µM.

Q: What about the IC50 (Cytochrome P450 2C19) of the same molecule?
A: Its IC50 is > 40 µM.

Q: What about the Activity (Mus musculus [22]) of the same molecule?
A: The Activity was 400%.

Q: And the IC50 (Cytochrome P450 3A4)?
A: The IC50 was > 150 µM.

Q: What about the IC50 [23] of the same molecule?
A: Its IC50 is > 80 µM.

Q: And the inhibition at 30 µM (hERG (KCNH2))?
A: Its inhibition at 30 µM is 4%.

Q: What about the Activity [24] of the same molecule?
A: Its Activity is -5.4%.

Q: And the Activity (CHO)?
A: The Activity was “Non-toxic”.

Q: And the Activity (Salmonella typhimurium)?
A: Its Activity is “Non-toxic”.

Q: What about the Activity (Rhesus monkey) of the same molecule?
A: Its Activity is “Non-toxic”.

Q: What about the Activity (Mus musculus [25]) of the same molecule?
A: Its Activity is “Dose-dependent effect”.

Q: What about the Activity (Mus musculus [26]) of the same molecule?
A: The Activity was “Dose-dependent effect”.
